Earlier results on two molecules are cited in patent US20100119624A1, “BENZISOXAZOLE MODULATORS OF D2 RECEPTOR AND/OR 5-HT2A RECEPTOR” (AUSPEX PHARMACEUTICALS, INC., priority 2008, published 2010).

One series deals with prolactin. The note with it: in vivo.
For series [1] the following is noted: in vivo.
The conditions of series [2]: coadministration of nafzodone, a competitive CYP3A inhibitor.

In the case of `Cc1nc2n(c(=O)c1CCN1CCC(c3noc4cc(F)ccc34)CC1)CCCC2O` (stereo not drawn) [9-Hydroxyrisperidone], the levels of prolactin entry in the series on prolactin is listed as “elevation in the levels of prolactin”.
Consider `Cc1nc2n(c(=O)c1CCN1CCC(c3noc4cc(F)ccc34)CC1)CCCC2` [Risperidone, 4-[2-[4-(6-fluorobenzo[d]isoxazol-3-yl)-1-piperidyl]ethyl]-3-methyl-2,6-diazabicyclo[4.4.0]deca-1,3-dien-5-one], for which the half-life result in series [1] is on record as “about 2 hours”. Further, the “decrease in risperidone clearance” value in series [2] was approximately 50%.
